Assay results as given in ChEMBL document CHEMBL3046262, “Inhibitory Activity of Indanofan and Its Enantiomers on Biosynthesis of Very-Long-Chain Fatty Acids” (J Pestic Sci, 2005).
Activity calls are given as the source filed them. The rule behind the calls is not given here.

Columns and labels:
[1] = Inhibition of very long chain fatty acid elongase in Allium ampeloprasum microsome using C18:0 as substrate and [14C]-malonate after 10 to 20 min by liquid scintillation counting; type: microsomes; settings: read-out: I50
Allium ampeloprasum [2] = assay: Inhibition of very long chain fatty acid elongase in Allium ampeloprasum microsome using C20:0 as substrate and [14C]-malonate at 1 x 10^-4 M after 10 to 20 min by liquid scintillation counting; type: microsomes
Allium ampeloprasum [3] = assay: Inhibition of very long chain fatty acid elongase in Allium ampeloprasum microsome using C18:0 as substrate and [14C]-malonate at 1 x 10^-4 M after 10 to 20 min by liquid scintillation counting; type: microsomes
Allium ampeloprasum [4] = assay: Inhibition of very long chain fatty acid elongase in Allium ampeloprasum microsome using C20:0 as substrate and [14C]-malonate at 1 x 10^-7 M after 10 to 20 min by liquid scintillation counting; type: microsomes
[5] = Inhibition of very long chain fatty acid elongase in Allium ampeloprasum microsome using C20:0 as substrate and [14C]-malonate after 10 to 20 min by liquid scintillation counting; type: microsomes; settings: read-out: I50
Allium ampeloprasum [6] = assay: Inhibition of very long chain fatty acid elongase in Allium ampeloprasum microsome using C20:0 as substrate and [14C]-malonate at 1 x 10^-6 M after 10 to 20 min by liquid scintillation counting; type: microsomes
Allium ampeloprasum [7] = assay: Inhibition of very long chain fatty acid elongase in Allium ampeloprasum microsome using C18:0 as substrate and [14C]-malonate at 1 x 10^-5 M after 10 to 20 min by liquid scintillation counting; type: microsomes
Allium ampeloprasum [8] = assay: Inhibition of very long chain fatty acid elongase in Allium ampeloprasum microsome using C20:0 as substrate and [14C]-malonate at 1 x 10^-5 M after 10 to 20 min by liquid scintillation counting; type: microsomes
Allium ampeloprasum [9] = assay: Inhibition of very long chain fatty acid elongase in Allium ampeloprasum microsome using C18:0 as substrate and [14C]-malonate at 1 x 10^-6 M after 10 to 20 min by liquid scintillation counting; type: microsomes
Echinochloa crus-galli = assay: Herbicidal activity against Echinochloa crus-galli (barnyard grass) by pot assay; type: functional
Allium ampeloprasum [10] = assay: Inhibition of very long chain fatty acid elongase in Allium ampeloprasum microsome using C18:0 as substrate and [14C]-malonate at 1 x 10^-7 M after 10 to 20 min by liquid scintillation counting; type: microsomes
Allium ampeloprasum [11] = assay: Inhibition of very long chain fatty acid elongase in Allium ampeloprasum microsome using C20:0 as substrate and [14C]-malonate at 1 x 10^-8 M after 10 to 20 min by liquid scintillation counting; type: microsomes
Allium ampeloprasum [12] = assay: Inhibition of very long chain fatty acid elongase in Allium ampeloprasum microsome using C20:0 as substrate and [14C]-malonate at 3 x 10^-8 M after 10 to 20 min by liquid scintillation counting; type: microsomes
Allium ampeloprasum [13] = assay: Inhibition of very long chain fatty acid elongase in Allium ampeloprasum microsome using C20:0 as substrate and [14C]-malonate at 3 x 10^-9 M after 10 to 20 min by liquid scintillation counting; type: microsomes
Allium ampeloprasum [14] = assay: Inhibition of very long chain fatty acid elongase in Allium ampeloprasum microsome using C18:0 as substrate and [14C]-malonate at 3 x 10^-9 M after 10 to 20 min by liquid scintillation counting; type: microsomes
Allium ampeloprasum [15] = assay: Inhibition of very long chain fatty acid elongase in Allium ampeloprasum microsome using C18:0 as substrate and [14C]-malonate at 3 x 10^-8 M after 10 to 20 min by liquid scintillation counting; type: microsomes
Allium ampeloprasum [16] = assay: Inhibition of very long chain fatty acid elongase in Allium ampeloprasum microsome using C18:0 as substrate and [14C]-malonate at 1 x 10^-8 M after 10 to 20 min by liquid scintillation counting; type: microsomes
Allium ampeloprasum [17] = assay: Competitive inhibition of very long chain fatty acid elongase in Allium ampeloprasum microsome using C18:0-CoA as substrate after 10 min by Lineweaver-Burk plot analysis; type: microsomes
Allium ampeloprasum [18] = assay: Inhibition of very long chain fatty acid elongase-mediated elongation to arachidic acid in Allium ampeloprasum microsome using [14C]-malonate after 10 to 20 min by liquid scintillation counting; type: microsomes
Allium ampeloprasum [19] = assay: Inhibition of very long chain fatty acid elongase in Allium ampeloprasum microsome using [14C]-malonate assessed per vial at 0.1 uM after 10 to 20 min by liquid scintillation counting; type: microsomes

## CCC1(C[C@@]2(c3cccc(Cl)c3)CO2)C(=O)c2ccccc2C1=O [(R)-INDANOFAN]
[1]
  IC50: > 1000 µM
Allium ampeloprasum [2]
  inhibition (INH): 38%
Allium ampeloprasum [3]
  inhibition (INH): 25%
Allium ampeloprasum [4]
  inhibition (INH): 9%
[5]
  IC50: > 1000 µM
Allium ampeloprasum [6]
  inhibition (INH): 18%
Allium ampeloprasum [7]
  inhibition (INH): 23%
Allium ampeloprasum [8]
  inhibition (INH): 27%
Allium ampeloprasum [9]
  inhibition (INH): 14%
Echinochloa crus-galli
  ED50: inactive

## CCC1(C[C@]2(c3cccc(Cl)c3)CO2)C(=O)c2ccccc2C1=O [(S)-INDANOFAN]
[1]
  IC50: 0.017 µM
Allium ampeloprasum [4]
  inhibition (INH): 76%
Allium ampeloprasum [10]
  inhibition (INH): 93%
Allium ampeloprasum [11]
  inhibition (INH): 31%
[5]
  IC50: 0.025 µM
Allium ampeloprasum [12]
  inhibition (INH): 54%
Allium ampeloprasum [13]
  inhibition (INH): 15%
Allium ampeloprasum [14]
  inhibition (INH): 7%
Allium ampeloprasum [15]
  inhibition (INH): 71%
Allium ampeloprasum [16]
  inhibition (INH): 30%
Echinochloa crus-galli
  ED50: 0.0254 KgAi/ha
Allium ampeloprasum [17]
  inhibition: Active

## CCC1(CC2(c3cccc(Cl)c3)CO2)C(=O)c2ccccc2C1=O (stereo not drawn) [(RS)-INDANOFAN]
[1]
  IC50: 0.03 µM
Allium ampeloprasum [4]
  inhibition (INH): 60%
Allium ampeloprasum [10]
  inhibition (INH): 82%
Allium ampeloprasum [11]
  inhibition (INH): 11%
Allium ampeloprasum [18]
  inhibition: 86%
[5]
  IC50: 0.071 µM
Allium ampeloprasum [12]
  inhibition (INH): 31%
Allium ampeloprasum [13]
  inhibition (INH): 8%
Allium ampeloprasum [14]
  inhibition (INH): 9%
Allium ampeloprasum [15]
  inhibition (INH): 49%
Allium ampeloprasum [16]
  inhibition (INH): 19%
Echinochloa crus-galli
  ED50: 0.0524 KgAi/ha
Allium ampeloprasum [19]
  INH: 3.6 pmol
